# Reference: US10745731B2, “Recombinant production method” (Hoffmann-La Roche Inc., priority 2015, dated 2020)
# Where two headings read alike, the source gives them in different places.
# B1: Flagellin: Flagellin from Salmonella typhimurium, TLR5 agonist, NFκB activator (protein, UniProt P06179 2-495, looked up)
# Flagellin: AQVINTNSLSLLTQNNLNKSQSALGTAIERLSSGLRINSAKDDAAGQAIANRFTANIKGLTQASRNANDGISIAQTTEGALNEINNNLQRVRELAVQSANSTNSQSDLDSIQAEITQRLNEIDRVSGQTQFNGVKVLAQDNTLTIQVGANDGETIDIDLKQINSQTLGLDTLNVQQKYKVSDTAATVTGYADTTIALDNSTFKASATGLGGTDQKIDGDLKFDDTTGKYYAKVTVTGGTGKDGYYEVSVDKTNGEVTLAGGATSPLTGGLPATATEDVKNVQVANADLTEAKAALTAAGVTGTASVVKMSYTDNNGKTIDGGLAVKVGDDYYSATQNKDGSISINTTKYTADDGTSKTALNKLGGADGKTEVVSIGGKTYAASKAEGHNFKAQPDLAEAAATTTENPLQKIDAALAQVDTLRSDLGAVQNRFNSAITNLGNTVNNLTSARSRIEDSDYATEVSNMSRAQILQQAGTSVLAQANQVPQNVLSLLR
# Experiments:
# [1] = tested on: HEK293F cells; assay: Transient gene expression in HEK293F cells: cell specific productivity of the expressed antibody; format: cell-based, human; conditions: for specific productivity after 96 hours: none 2.01
# Description: HEK293F cells were cultivated in F17 medium (Life Technologies) in shaker flasks at 36.5° C., 7.0% CO2 and 80% humidity in a shaker incubator (Kuhner, Mytron). Cells were split every three to four days and were cultivated no longer than five weeks. To avoid overgrowth and to keep them in the exponential phase of growth, viable cell densities (VCD) never exceeded 60*10^5 cells/mL.
# (§1) Transient gene expression is a 5-7 days lasting procedure. The standard operating procedure of this expression system is applicable to shaker flasks with various volumes of cell culture ranging from 80 mL to 2 L. First, half of the cell culture volume is seeded at a viable cell density (VCD) of 8*10^5 cells/mL. After two days of cultivation, cells are split to a VCD of about 12*10^5 cells/mL. On the next day, cells are transfected with a polyethylene imine (PEI)-based transfection reagent at a VCD between 20*10^5 cells/mL and 25*10^5 cells/mL. 3 hours after transfection, the production enhancer (if any) is added. 24 h after transfection, a feeding solution and a glucose bolus is supplemented to avoid the limitation of nutrients. Depending on cell viability, which should not decrease below 50%, the supernatant is harvested five to seven days post transfection and subjected to antibody purification.
# (§2) To compare transient gene expression rates always the same plasmids encoding for one distinct antibody were co-transfected.
# (§3) To co-transfect two plasmids equimolarily, the ratio of the base pair number of one plasmid to the total base pair number was calculated and multiplied with the total amount of DNA (0.5 mg/L). Plasmid one has a size of 10530 bp and plasmid two has a size of 7184 bp and were solved in water to a final concentration of 1 mg/mL. For transfection of one liter cell culture, 297 μL of plasmid one and 203 μl of plasmid two were dissolved in 40 mL phosphate buffered saline (PBS) at room temperature. 1.25 mL JetPEI® solution was added and the solution was mixed well. After incubation for 10-15 min., the mixture was added to the cells. The cells were transfected in a batch containing the whole cell culture necessary for every experiment to avoid variance arising from different transfection efficiencies.
# (§4) 80 mL of the transfected cell culture batch was added to a 125 ml shaker flask. For every experiment, two or three 125 mL shaker flasks were used as biological replicates and treated the same way. Three hours after transfection, cells were split into 125 mL shaker flasks and the cellular treatments with small molecules or ligands were started. Basal protein expression was determined by untreated control samples. To compare samples with the standard operating procedure, cells were also treated with VPA to a final concentration of 4 mM or 3 mM. VPA and its analogues were dissolved in double distilled water. […] Tumor necrosis factor (TNF) alpha was reconstituted with PBS supplemented with 0.1% BSA. Flagellin was dissolved in sterile double distilled water. The applied molecules were not added to the cultivation directly, but diluted in 16 mL medium pre-warmed to 36.5° C. and added to the cultivation thereafter.
# (§5) 24 h after transfection a feeding solution at 36.5° C. and 3 mg/mL glucose were added to the cultivation.
# (§6) To determine cell viability and viable cell density (VCD) 1 mL cultivation medium (cell suspension) was transferred into a Cedex low fouling sample cup. The cup was placed into a Vicell instrument (Beckman Coulter). The instrument mixes cells with trypan blue to stain dead cells. After analysis of 50 images VCD was calculated and viability was determined by calculation of the percentage of viable cell number in relation to the total cell number.
# (§7) Total concentration of the transiently expressed antibody was determined by a turbidimetric test. One mL cell suspension was transferred into an Eppendorf cup and centrifuged for 10 min. at 10,000 rpm (9,300 g).
# [2] = tested on: HDAC; assay: in situ HDAC activity fluorimetric assay in HEK293F cells; format: cell-based, human
# Description: HDAC activity was determined by the in situ HDAC activity fluorimetric assay kit (Biovision) according to the manufacturer's instructions. HEK293F cells were suspended in F17 medium (Life Technologies) to a cell density of 5*10^5 cells/mL. One hundred micro liter culture was pipetted per well into a black ELISA plate. The plate was centrifuged at 1000 g for 5 min. The supernatant was discarded and the cells were resuspended in a reaction mix containing F17 medium, 1% HDAC substrate and the molecule tested towards HDAC inhibitory activity. 10 μM Trichostatin A was used as a positive control and the basal HDAC activity was determined by re-suspending the cells in F17 medium with 1% HDAC substrate. Furthermore, cells were resuspended in F17 medium without HDAC substrate as a background control. The HDAC activity assay was performed in triplicates for every sample as well as every control. The 96-well plate was incubated at 36.5° C., 80% humidity and 7% CO2 for one hour. During this time, the active HDACs deacetylate the HDAC substrate what releases the quenched fluorescent signal of the substrate. After incubation the fluorescent signal was analyzed by the infinite fluorescence plate reader (TECAN). The fluorescence signal of the samples and controls was normalized by subtracting the fluorescence signal of the background control. It is assumed that the fluorescent signal arising from deacetylation of the substrate directly correlates with HDAC activity.
# [3] = tested on: HEK293F cells; assay: Transient gene expression in HEK293F cells: IgG concentration / titer (turbidimetric test); format: cell-based, human
# Description: as §1, §2, §3, §4, §5
# as §7, with “g). The supernatant was transferred into a new cup and subjected to Cobas Integra 400 plus (Roche) analysis. With comparison to internal standard the absolute concentration was calculated.” for “g).”
# [4] = tested on: HEK293F cells; format: cell-based
# Description: as §6
# [5] = tested on: HDAC; conditions: description from the literature; cited from earlier work
molecule,measurement,setting,value
"CCCC(CCC)C(=O)O [valproic acid, 2-propylpentanoic acid]",cell specific productivity with BAY11-7082 addition compared to the single treatment,[1]; 15 μM BAY11-7082 added 24 h after transfection,significantly reduced
same,specific productivity after 96 hours,"[1]; 3 mM, single treatment, N=3",4.92 pg/cell/day
same,activity at 500 µM,"[1]; Homo sapiens, HEK293F, 0.5 mM, sole enhancer, control=100, N=2, FIG. 1, read-out: relative cell specific productivity",184%
same,activity at 1000 µM,"[1]; Homo sapiens, HEK293F, 1 mM, sole enhancer, control=100, N=2, FIG. 1, read-out: relative cell specific productivity",204%
same,activity at 2000 µM,"[1]; Homo sapiens, HEK293F, 2 mM, VPA/2M2P combination study, none=100, N=3, read-out: relative cell specific productivity",278%
same,activity at 2000 µM,"[1]; Homo sapiens, HEK293F, 2 mM, VPA/Quisinostat combination study, none=100, N=3, read-out: relative cell specific productivity",278%
same,activity at 2000 µM,"[1]; Homo sapiens, HEK293F, 2 mM, sole enhancer, control=100, N=2, FIG. 1, read-out: relative cell specific productivity",246%
same,activity at 3000 µM,"[1]; Homo sapiens, HEK293F, 3 mM, single treatment, none=100, N=3, read-out: relative cell specific productivity",237%
same,activity at 3000 µM,"[1]; Homo sapiens, HEK293F, 3 mM, sole enhancer, control=100, N=2, FIG. 1, read-out: relative cell specific productivity",284%
same,activity at 3000 µM,"[1]; Homo sapiens, HEK293F, 3 mM, transfected control=100, N=3, FIG. 3B, read-out: relative cell specific productivity",316%
same,activity at 4000 µM,"[1]; Homo sapiens, HEK293F, 4 mM, sole enhancer, control=100, N=2, FIG. 1, read-out: relative cell specific productivity",273%
same,activity at 6000 µM,"[1]; Homo sapiens, HEK293F, 6 mM, sole enhancer, control=100, N=2, FIG. 1, read-out: relative cell specific productivity",223%
same,activity at 4000 µM,"[1]; Homo sapiens, HEK293F, employed concentration 4 mM, none=100, N=2, FIG. 2B, read-out: relative cell specific productivity",326%
same,activity at 4000 µM,"[1]; Homo sapiens, HEK293F, employed concentration 4 mM, none=100, N=2, FIG. 4, read-out: relative cell specific productivity",315%
same,Mean cell specific productivity,"[1]; conc. 3 mM, untreated 1.71",5.4 (3 mM) pg/cell/24 h
same,Effect on titer/SPR,"[1]; summary table, in words",strong
same,HDACi,"[2]; 3 mM, N=3, FIG. 3A",58%
same,HDAC inhibition,"[2]; yes/no, summary table",yes
same,relative IgG concentration,"[3]; 2 mM, VPA/2M2P combination study, none=100, N=3",217%
same,relative IgG concentration,"[3]; 2 mM, VPA/Quisinostat combination study, none=100, N=3",217%
same,final titer,"[3]; 3 mM, none 39.8, N=3",68.8 mg/L
same,relative titer,"[3]; 3 mM, none=100, N=1",188%
same,relative IgG concentration,"[3]; 4 mM, none=100, N=3, FIG. 6B",173%
same,relative IgG concentration,"[3]; 4 mM, none=100, N=3, FIG. 8B",173%
same,relative IgG concentration,"[3]; 4 mM, none=100, N=3, FIG. 9B",173%
same,growth inhibition and cell death,[4]; in contrast to other HDACi tested,induce growth inhibition and cell death
CCCC(CCC)C(N)=O [valpromide],TGE enhancement,"[1]; 2 mM, in words",Weak TGE enhancement
same,activity at 2000 µM,"[1]; Homo sapiens, HEK293F, employed concentration 2 mM, none=100, N=2, FIG. 4, read-out: relative cell specific productivity",155%
same,activity at 3000 µM,"[1]; Homo sapiens, HEK293F, employed concentration 3 mM, none=100, N=2, FIG. 4, read-out: relative cell specific productivity",0%
same,HDAC inhibitory activity,[5],very weak to no HDAC inhibitory activity
same,cytotoxicity,[4]; 3 mM,cytotoxic
same,toxicity (remark in productivity cell),[4]; employed concentration 3 mM,toxic
B1,relative cell specific productivity,"[1]; 2 ng/mL, none=100, N=3, FIG. 6A",135%
same,relative cell specific productivity,"[1]; 2 ng/mL, none=100, N=3, FIG. 8A",135%
same,specific productivity after 96 hours,"[1]; 2 ng/mL, single treatment, N=3",2.27 pg/cell/day
same,relative cell specific productivity,"[1]; 2 ng/mL, single treatment, none=100, N=3",134%
same,relative cell specific productivity,"[1]; 10 ng/mL, none=100, N=2, FIG. 5",154%
same,TGE enhancement after BAY11-7082 treatment compared to the corresponding single treatment,[1]; BAY11-7082 added 24 hours after stimulation,significantly reduced
same,relative IgG concentration,"[3]; 2 ng/mL, none=100, N=3, FIG. 6B",133%
same,relative IgG concentration,"[3]; 2 ng/mL, none=100, N=3, FIG. 8B",128%
same,toxicity,[4]; compared amongst NFκB activators,mildest toxicity
